Data: PMC10518257 (Nature Cancer, 2023)
Where “and” joins values, the source holds several entries; their conditions need not be identical. Equal entries are not always repeated.

How the values were obtained:
[1] = test system: LUAD-0087AS2 PDX; assay: PDX efficacy study; settings: individual animals; for Tumor volume: LUAD-0087AS2, 30 mg/kg BID
[2] = target: T1, KIF5B–RET L772M (Homo sapiens, UniProt P07949, L772M); assay: In-cell western assay of RET autophosphorylation; format: cell-based; settings: Jump-In GripTite HEK293 cells, one hour; Mean
T1 construct: Fusion of the RET kinase domain with several N-terminal partners such as kinesin family 5B (KIF5B); KIF5B (N-terminal fusion partner); expressed in transfected cells; host or cells: Jump-In GripTite HEK293 (transient)

[3] = target: T2, KIF5B–RET E732K (Homo sapiens, UniProt P07949, E732K); assay: In-cell western assay of RET autophosphorylation; format: cell-based; settings: Jump-In GripTite HEK293 cells, one hour; Mean
T2 construct: Fusion of the RET kinase domain with several N-terminal partners such as kinesin family 5B (KIF5B); KIF5B (N-terminal fusion partner); expressed in transfected cells; host or cells: Jump-In GripTite HEK293 (transient)

[4] = target: panel of 255 (vepafestinib) or 256 (all other inhibitors) recombinant kinases; assay: Kinase selectivity profiling at a single concentration (Carna Biosciences); format: biochemical; settings: 26 nM, 256 kinases
[5] = target: T3, KIF5B–RET M759I (Homo sapiens, UniProt P07949, M759I); assay: In-cell western assay of RET autophosphorylation; format: cell-based; settings: Jump-In GripTite HEK293 cells, one hour; Mean (TPX-0046: the three replicates)
T3 construct: Fusion of the RET kinase domain with several N-terminal partners such as kinesin family 5B (KIF5B); KIF5B (N-terminal fusion partner); expressed in transfected cells; host or cells: Jump-In GripTite HEK293 (transient)

[6] = target: T4, KIF5B–RET G810S (Homo sapiens, UniProt P07949, G810S); assay: In-cell western assay of RET autophosphorylation; format: cell-based; settings: Jump-In GripTite HEK293 cells, one hour; Mean
T4 construct: Fusion of the RET kinase domain with several N-terminal partners such as kinesin family 5B (KIF5B); KIF5B (N-terminal fusion partner); expressed in transfected cells; host or cells: Jump-In GripTite HEK293 (transient)

[7] = target: T5, KIF5B–RET L760Q (Homo sapiens, UniProt P07949, L760Q); assay: In-cell western assay of RET autophosphorylation; format: cell-based; settings: Jump-In GripTite HEK293 cells, one hour; Mean
T5 construct: Fusion of the RET kinase domain with several N-terminal partners such as kinesin family 5B (KIF5B); KIF5B (N-terminal fusion partner); expressed in transfected cells; host or cells: Jump-In GripTite HEK293 (transient)

[8] = target: T6, KIF5B–RET L730Q (Homo sapiens, UniProt P07949, L730Q); assay: In-cell western assay of RET autophosphorylation; format: cell-based; settings: Jump-In GripTite HEK293 cells, one hour; Mean
T6 construct: Fusion of the RET kinase domain with several N-terminal partners such as kinesin family 5B (KIF5B); KIF5B (N-terminal fusion partner); expressed in transfected cells; host or cells: Jump-In GripTite HEK293 (transient)

[9] = in vivo; settings: male, BALB/c, mouse, brain and plasma, po, 50 mg/kg, Kp,uu,brain (unbound brain/plasma concentration ratio), male BALB/c mice, 50 mg per kg oral, 0.5 h or 1 h
[10] = target: T7, KIF5B–RET G810R (Homo sapiens, UniProt P07949, G810R); assay: In-cell western assay of RET autophosphorylation; format: cell-based; settings: Jump-In GripTite HEK293, 1 h, phospho-RET (Y905)/RET
T7 construct: Fusion of the RET kinase domain with several N-terminal partners such as kinesin family 5B (KIF5B); KIF5B (N-terminal fusion partner); expressed in transfected cells; host or cells: Jump-In GripTite HEK293 (transient)

[11] = target: T8, KIF5B–RET G736A (Homo sapiens, UniProt P07949, G736A); assay: In-cell western assay of RET autophosphorylation; format: cell-based; settings: Jump-In GripTite HEK293 cells, one hour; Mean
T8 construct: Fusion of the RET kinase domain with several N-terminal partners such as kinesin family 5B (KIF5B); KIF5B (N-terminal fusion partner); expressed in transfected cells; host or cells: Jump-In GripTite HEK293 (transient)

[12] = target: T9, recombinant human RET (Homo sapiens, UniProt P07949); assay: RET^WT kinase-inhibition assay (LANCE TR-FRET); format: biochemical; settings: 10 μM ATP
T9 construct: purchased Carna Biosciences, Inc (Kobe, Japan)

[13] = target: T10, KIF5B–RET G810A (Homo sapiens, UniProt P07949, G810A); assay: In-cell western assay of RET autophosphorylation; format: cell-based; settings: Jump-In GripTite HEK293 cells, one hour; Mean
T10 construct: Fusion of the RET kinase domain with several N-terminal partners such as kinesin family 5B (KIF5B); KIF5B (N-terminal fusion partner); expressed in transfected cells; host or cells: Jump-In GripTite HEK293 (transient)

[14] = target: T11, KIF5B–RET I788N (Homo sapiens, UniProt P07949, I788N); assay: In-cell western assay of RET autophosphorylation; format: cell-based; settings: Jump-In GripTite HEK293 cells, one hour; Mean
T11 construct: Fusion of the RET kinase domain with several N-terminal partners such as kinesin family 5B (KIF5B); KIF5B (N-terminal fusion partner); expressed in transfected cells; host or cells: Jump-In GripTite HEK293 (transient)

[15] = target: T12, KIF5B–RET WT (Homo sapiens, UniProt P07949); assay: In-cell western assay of RET autophosphorylation; format: cell-based; settings: Jump-In GripTite HEK293, 1 h, phospho-RET (Y905)/RET
T12 construct: Fusion of the RET kinase domain with several N-terminal partners such as kinesin family 5B (KIF5B); KIF5B (N-terminal fusion partner); expressed in transfected cells; host or cells: Jump-In GripTite HEK293 (transient, pJTI Fast-based vector)

[16] = target: T13, KIF5B–RET Y806C (Homo sapiens, UniProt P07949, Y806C); assay: In-cell western assay of RET autophosphorylation; format: cell-based; settings: Jump-In GripTite HEK293 cells, one hour; Mean
T13 construct: Fusion of the RET kinase domain with several N-terminal partners such as kinesin family 5B (KIF5B); KIF5B (N-terminal fusion partner); expressed in transfected cells; host or cells: Jump-In GripTite HEK293 (transient)

[17] = target: T14, KIF5B–RET E768Q (Homo sapiens, UniProt P07949, E768Q); assay: In-cell western assay of RET autophosphorylation; format: cell-based; settings: Jump-In GripTite HEK293 cells, one hour; Mean
T14 construct: Fusion of the RET kinase domain with several N-terminal partners such as kinesin family 5B (KIF5B); KIF5B (N-terminal fusion partner); expressed in transfected cells; host or cells: Jump-In GripTite HEK293 (transient)

[18] = target: T15, KIF5B–RET G810D (Homo sapiens, UniProt P07949, G810D); assay: In-cell western assay of RET autophosphorylation; format: cell-based; settings: Jump-In GripTite HEK293 cells, one hour; Mean
T15 construct: Fusion of the RET kinase domain with several N-terminal partners such as kinesin family 5B (KIF5B); KIF5B (N-terminal fusion partner); expressed in transfected cells; host or cells: Jump-In GripTite HEK293 (transient)

[19] = target: T16, KIF5B–RET L730R (Homo sapiens, UniProt P07949, L730R); assay: In-cell western assay of RET autophosphorylation; format: cell-based; settings: Jump-In GripTite HEK293 cells, one hour; Mean
T16 construct: Fusion of the RET kinase domain with several N-terminal partners such as kinesin family 5B (KIF5B); KIF5B (N-terminal fusion partner); expressed in transfected cells; host or cells: Jump-In GripTite HEK293 (transient)

[20] = target: T17, KIF5B–RET G810C (Homo sapiens, UniProt P07949, G810C); assay: In-cell western assay of RET autophosphorylation; format: cell-based; settings: Jump-In GripTite HEK293 cells, one hour; Mean
T17 construct: Fusion of the RET kinase domain with several N-terminal partners such as kinesin family 5B (KIF5B); KIF5B (N-terminal fusion partner); expressed in transfected cells; host or cells: Jump-In GripTite HEK293 (transient)

[21] = test system: LUAD-0057AS1 PDX; assay: PDX efficacy study

T3 sequence (P07949 713-1063 M759I limits assumed): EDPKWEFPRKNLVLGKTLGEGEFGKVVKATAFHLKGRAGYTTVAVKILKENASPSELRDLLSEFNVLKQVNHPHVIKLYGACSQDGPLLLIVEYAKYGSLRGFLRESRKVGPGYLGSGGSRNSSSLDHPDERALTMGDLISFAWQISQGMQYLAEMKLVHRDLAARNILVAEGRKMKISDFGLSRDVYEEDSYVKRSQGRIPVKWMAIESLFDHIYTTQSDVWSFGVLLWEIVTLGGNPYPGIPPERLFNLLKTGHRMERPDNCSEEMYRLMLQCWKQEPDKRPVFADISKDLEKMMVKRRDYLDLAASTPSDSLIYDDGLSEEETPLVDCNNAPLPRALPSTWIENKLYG
T12 sequence (P07949 713-1063 limits assumed): as the sequence (P07949 713-1063 M759I limits assumed) above, with I47M counted along it
T9 sequence (P07949 29-1114): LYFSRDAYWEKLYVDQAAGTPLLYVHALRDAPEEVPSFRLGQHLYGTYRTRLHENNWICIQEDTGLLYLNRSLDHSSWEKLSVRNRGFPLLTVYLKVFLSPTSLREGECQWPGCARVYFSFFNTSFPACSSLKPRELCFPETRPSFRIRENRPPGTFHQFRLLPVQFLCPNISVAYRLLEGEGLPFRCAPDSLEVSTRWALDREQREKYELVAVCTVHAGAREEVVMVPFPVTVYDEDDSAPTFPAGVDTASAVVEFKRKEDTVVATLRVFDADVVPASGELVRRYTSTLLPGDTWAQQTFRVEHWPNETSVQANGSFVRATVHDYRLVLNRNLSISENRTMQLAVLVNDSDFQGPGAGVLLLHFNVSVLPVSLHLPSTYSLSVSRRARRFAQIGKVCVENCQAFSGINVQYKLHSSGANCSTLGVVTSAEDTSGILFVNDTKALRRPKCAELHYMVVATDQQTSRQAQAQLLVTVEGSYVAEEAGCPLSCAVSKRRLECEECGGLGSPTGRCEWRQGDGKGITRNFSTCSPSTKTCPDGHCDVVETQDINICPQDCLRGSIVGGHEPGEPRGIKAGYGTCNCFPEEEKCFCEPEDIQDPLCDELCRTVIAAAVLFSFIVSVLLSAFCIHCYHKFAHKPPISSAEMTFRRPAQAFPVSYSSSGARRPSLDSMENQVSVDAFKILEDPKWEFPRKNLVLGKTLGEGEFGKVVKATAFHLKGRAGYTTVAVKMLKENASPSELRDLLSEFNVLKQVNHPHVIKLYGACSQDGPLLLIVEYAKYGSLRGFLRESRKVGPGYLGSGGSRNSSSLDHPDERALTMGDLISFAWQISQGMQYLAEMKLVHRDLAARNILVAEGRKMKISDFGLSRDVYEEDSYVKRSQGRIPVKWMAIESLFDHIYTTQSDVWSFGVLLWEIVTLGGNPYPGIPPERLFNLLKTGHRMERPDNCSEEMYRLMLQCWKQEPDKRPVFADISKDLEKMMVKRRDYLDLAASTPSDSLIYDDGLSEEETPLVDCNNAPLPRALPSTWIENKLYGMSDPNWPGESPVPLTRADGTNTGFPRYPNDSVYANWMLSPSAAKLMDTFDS
T8 sequence (P07949 713-1063 G736A limits assumed): as the sequence (P07949 713-1063 M759I limits assumed) above, with G24A, I47M counted along it
T10 sequence (P07949 713-1063 G810A limits assumed): as the sequence (P07949 713-1063 M759I limits assumed) above, with I47M, G98A counted along it
T17 sequence (P07949 713-1063 G810C limits assumed): as the sequence (P07949 713-1063 M759I limits assumed) above, with I47M, G98C counted along it
T4 sequence (P07949 713-1063 G810S limits assumed): as the sequence (P07949 713-1063 M759I limits assumed) above, with I47M, G98S counted along it
T15 sequence (P07949 713-1063 G810D limits assumed): as the sequence (P07949 713-1063 M759I limits assumed) above, with I47M, G98D counted along it
T7 sequence (P07949 713-1063 G810R limits assumed): as the sequence (P07949 713-1063 M759I limits assumed) above, with I47M, G98R counted along it
T16 sequence (P07949 713-1063 L730R limits assumed): as the sequence (P07949 713-1063 M759I limits assumed) above, with L18R, I47M counted along it
T13 sequence (P07949 713-1063 Y806C limits assumed): as the sequence (P07949 713-1063 M759I limits assumed) above, with I47M, Y94C counted along it
T5 sequence (P07949 713-1063 L760Q limits assumed): as the sequence (P07949 713-1063 M759I limits assumed) above, with I47M, L48Q counted along it
T11 sequence (P07949 713-1063 I788N limits assumed): as the sequence (P07949 713-1063 M759I limits assumed) above, with I47M, I76N counted along it
T6 sequence (P07949 713-1063 L730Q limits assumed): as the sequence (P07949 713-1063 M759I limits assumed) above, with L18Q, I47M counted along it
T14 sequence (P07949 713-1063 E768Q limits assumed): as the sequence (P07949 713-1063 M759I limits assumed) above, with I47M, E56Q counted along it
T1 sequence (P07949 713-1063 L772M limits assumed): as the sequence (P07949 713-1063 M759I limits assumed) above, with I47M, L60M counted along it
T2 sequence (P07949 713-1063 E732K limits assumed): as the sequence (P07949 713-1063 M759I limits assumed) above, with E20K, I47M counted along it

Compound: COC1(C(=O)NC(C)c2ccc(-n3cc(F)cn3)nc2)CCC(c2nc(C)cc(Nc3cc(C)[nH]n3)n2)CC1 (centres unmarked) [Prasletinib]
- Tumor volume ([1]; treatment day 0): 122.74 and 122.52 (2×) and 118.47 (2×)
- Tumor volume ([1]; treatment day 3): 116.87 and 110.97 (2×) and 118.47 and 114.83
- Tumor volume ([1]; treatment day 7): 100.16 and 96.62 (2×) and 101.37 and 91.61
- Tumor volume ([1]; treatment day 10): 100.16 and 103.77 and 96.62 and 99.78 and 95.03
- Tumor volume ([1]; treatment day 14): 96.88 and 83.83 and 88.25 and 99.78 and 90.28
- Tumor volume ([1]; treatment day 17): 103.77 and 79.42 and 83.83 (2×) and 96.62
- Tumor volume ([1]; treatment day 21): 90.28 and 70.82 and 74.9 and 83.83 (2×)
- Tumor volume ([1]; treatment day 24): 74.9 and 54.36 and 71.99 (2×) and 58.99
- Tumor volume ([1]; treatment day 29): 72.18 and 54.36 and 71.99 and 57.83 and 56.67
- Tumor volume ([1]; treatment day 32): 75.04 and 60.32 (2×) and 74.9 and 57.83
- Tumor volume ([1]; treatment day 35): 75.04 and 60.32 and 74.9 (2×) and 57.83
- Tumor volume ([1]; treatment day 38): 75.04 and 60.32 and 77.63 and 90.28 and 57.83
- Tumor volume ([1]; treatment day 42): 77.87 and 68.07 and 77.63 and 90.28 and 60.32
- Tumor volume ([1]; treatment day 45): 77.87 and 68.07 and 70.69 (2×) and 60.32

Compound: C[C@H]1CNC(=O)c2cnn3cc4c(nc23)N(Cc2cc(F)cnc2O1)[C@@H]1CCC[C@@H]1O4 [TPX-0046]
- IC50 [2]: 2.69 nM
- IC50 [3]: 14.7 nM
- kinases inhibited by >50% [4]: 39
- IC50 [5]: < 1 nM and 1.2 nM and 1.72 nM
- IC50 [6]: 5.87 nM
- IC50 [7]: 5.35 nM
- IC50 [8]: 16.6 nM
- Kp uu [9]: 0.077
- IC50 [10]: 108 nM
- IC50 [11]: 3.21 nM
- IC50 [12]: 0.26 ± 0.02 nM
- IC50 [13]: 6.53 nM
- IC50 [14]: 50.6 nM
- IC50 [15]: 21.9 nM
- IC50 [16]: 50 nM
- IC50 [17]: 4.05 nM
- IC50 [18]: 57.9 nM
- IC50 [19]: 4.49 nM
- IC50 [20]: 36.1 nM

Compound: COc1cc2nccc(Oc3ccc(NC(=O)C4(C(=O)Nc5ccc(F)cc5)CC4)cc3)c2cc1OC [Cabozantinib]
- tumor shrinkage ([21]; 30 mg per kg QD): did not lead to any tumor shrinkage
- Area Under Curve of tumor growth, Mean ([21]; 30 mg/kg QD): 1051
- Tumor volume ([21]; 30 mg/kg QD, day 0, individual animals): 139.24 mm3 and 130.83 mm3 and 132.84 mm3 and 134.85 mm3 and 137.16 mm3 and 136.86 mm3 and 128.59 mm3 (2×)
- Tumor volume ([21]; 30 mg/kg QD, day 3, individual animals): 143.69 mm3 (2×) and 141.55 mm3 and 159.83 mm3 and 157.37 mm3 and 161.94 mm3 and 155.09 mm3 and 150.43 mm3
- Tumor volume ([21]; 30 mg/kg QD, day 7, individual animals): 150.13 mm3 and 145.84 mm3 and 157.07 mm3 and 171.9 mm3 and 159.66 mm3 and 132.84 mm3 and 161.94 mm3 and 154.85 mm3
- Tumor volume ([21]; 30 mg/kg QD, day 10, individual animals): 150.13 mm3 and 154.85 mm3 (2×) and 171.06 mm3 and 197.55 mm3 and 217.15 mm3 and 132.84 mm3 and 165.92 mm3
- Tumor volume ([21]; 30 mg/kg QD, day 14, individual animals): 150.13 mm3 and 176.28 mm3 and 188.03 mm3 (3×) and 224.35 mm3 and 288.71 mm3 and 168.78 mm3
- Tumor volume ([21]; 30 mg/kg QD, day 19, individual animals): 150.13 mm3 and 183.33 mm3 and 195.09 mm3 and 204.49 mm3 and 294.92 mm3 and 176.28 mm3 and 193.69 mm3 and 188.03 mm3
- Tumor volume ([21]; 30 mg/kg QD, day 23, individual animals): 194.67 mm3 and 219.37 mm3 and 246.79 mm3 and 251.12 mm3 and 340.1 mm3 and 242.75 mm3 and 230.72 mm3 and 228.34 mm3
- Change in Tumor Volume ([21]; 30 mg/kg QD, end of study, individual tumors): 39.809% and 67.6756% and 85.7799% and 86.2217% and 147.959% and 77.371% and 79.423% and 77.5721%

Compound: COc1ccc(CN2C3CC2CN(c2ccc(-c4cc(OCC(C)(C)O)cn5ncc(C#N)c45)cn2)C3)cn1 [Sepercatinib]
- Change in tumor volume (% from base line) ([1]; Fig. 6a LUAD-0087AS2, selpercatinib 30 mg/kg BID): -13.818% and -42.542% and -38.123% and -35.767% and -33.072%
